Measured values as given in PMC6057649, “Development of NanoLuc-PEST expressing Leishmania mexicana as a new drug discovery tool for axenic- and intramacrophage-based assays” (PLoS Neglected Tropical Diseases, 2018).
pEC50: −log10 of the molar value.

Tested on: NanoLuc-PEST expressing L. mexicana axenic amastigotes
Test: microbe, parasite or virus in culture
Format: cell-based
Settings: for pEC50: hit compounds from the axenic amastigote screen, S3 Table, read-out: EC50, Axenic Amastigotes
[1] = 2 µM compound, 72 hours, relative to DMSO only control, n = 4
[2] = 10 µM compound, 72 hours, relative to DMSO only control, n = 4

## CN1CCN(c2cc(-c3ccc(F)cc3)nc(-c3ccncc3)n2)CC1 [MMV688888]
[1]
  Relative Bioluminescence (%): 78.28%
[2]
  Relative Bioluminescence (%): 89.99%

## COc1cccc(NC(=O)c2c(NC(=O)c3cccnc3)sc3c2CCC3)c1 [MMV228911]
[1]
  Relative Bioluminescence (%): 73.96%
[2]
  Relative Bioluminescence (%): 11.53%

## COc1ccc(C2=NCCN2)cc1-c1cn(-c2cccc(C3=NCCN3)c2)nn1 [MMV688547]
[1]
  Relative Bioluminescence (%): 85.85%
[2]
  Relative Bioluminescence (%): 128.07%

## Cc1ccc(-c2nc(CN(Cc3ccccn3)C(C)C)cs2)o1 [MMV1088520]
[1]
  Relative Bioluminescence (%): 70.72%
[2]
  Relative Bioluminescence (%): -3.27%

## COc1ccc(-c2nc(-c3cccc(NC(=O)Cc4ccc(F)cc4)c3)no2)cc1OC [MMV676571]
[1]
  Relative Bioluminescence (%): 102.29%
[2]
  Relative Bioluminescence (%): 85.94%

## CS(=O)(=O)N1CCC(CCn2nc(Cc3cccc4ccccc34)c3c(N)ncnc32)CC1 [MMV688470]
[1]
  Relative Bioluminescence (%): 96.68%
[2]
  Relative Bioluminescence (%): 53.17%

## CCCCc1ccc(NC(=O)Nc2ccc(O[C@H]3CCCC[C@@H]3N(C)c3ccccc3)c(F)c2)cc1 [MMV676063]
[1]
  Relative Bioluminescence (%): 99.42%
[2]
  Relative Bioluminescence (%): 66.65%

## COc1cc(C2=NCCN2)ccc1-n1cc(-c2cccc(C3=NCCN3)c2)nn1 [MMV688474]
[1]
  Relative Bioluminescence (%): 77.71%
[2]
  Relative Bioluminescence (%): 76.43%

## CN1CCC[C@@H]1CCO[C@](C)(c1ccccc1)c1ccc(Cl)cc1 [MMV637229, Clemastine, reference compound]
Leishmania mexicana, 2 µM compound, 72 hours, relative to DMSO only control, n = 4, read-out: Relative Bioluminescence (%)
  viability at 2 µM: 47.3%
Leishmania mexicana, 10 µM compound, 72 hours, relative to DMSO only control, n = 4, read-out: Relative Bioluminescence (%)
  viability at 10 µM: 11.2%

## O=C(Nc1cccc(-c2ccc(NCCCN3CCCC3)nc2)c1)c1ccccc1 [MMV023953]
[1]
  Relative Bioluminescence (%): 85.42%
[2]
  Relative Bioluminescence (%): 83.96%

## NC(=O)c1cc(Br)ccc1OCCOc1ccccc1 [MMV687243]
[1]
  Relative Bioluminescence (%): 65.34%
[2]
  Relative Bioluminescence (%): 78.50%

## CN1CCN(S(=O)(=O)c2ccc(-c3ccc4c(Nc5ccc6n[nH]nc6c5)ccnc4c3)cc2)CC1 [MMV687246]
[1]
  Relative Bioluminescence (%): 103.95%
[2]
  Relative Bioluminescence (%): 82.04%

## Nc1ncnc2c1c(Cc1cccc3ccccc13)nn2CC1CCNCC1 [MMV676182]
[1]
  Relative Bioluminescence (%): 78.18%
[2]
  Relative Bioluminescence (%): 53.64%

## O=C(Nc1c(O)cccc1-c1nc2c(C(=O)O)cccc2o1)c1cc(-c2ccccc2)on1 [MMV676008]
[1]
  Relative Bioluminescence (%): 79.00%
[2]
  Relative Bioluminescence (%): -1.15%

## CC1CC1C(=O)NC1CCN(CC2(c3ccccc3)CCCCC2)CC1 (stereo not drawn) [MMV020120]
[1]
  Relative Bioluminescence (%): 92.92%
[2]
  Relative Bioluminescence (%): 99.97%

## CCOc1ccc(-c2nc(NC(=O)CS(=O)(=O)c3ccccc3)sc2C)cc1 [MMV007638]
[1]
  Relative Bioluminescence (%): 57.66%
[2]
  Relative Bioluminescence (%): 52.58%

## O=C(CCC1CCCCC1)Nc1cccc(-c2nnc(-c3ccco3)o2)c1 [MMV676589]
[1]
  Relative Bioluminescence (%): 54.08%
[2]
  Relative Bioluminescence (%): 15.64%

## O=C(OCc1ccccc1)N1CCC(c2cc(-c3ccncc3)c(-c3ccc(F)cc3)[nH]2)CC1 [MMV688509]
[1]
  Relative Bioluminescence (%): 70.28%
[2]
  Relative Bioluminescence (%): 27.84%

## COc1ccc(-c2cnc3ccc(N4CCCC4)nn23)cc1OC [MMV023985]
[1]
  Relative Bioluminescence (%): 57.95%
[2]
  Relative Bioluminescence (%): 46.63%

## CN(C)CCNC(=O)N1CCCN(c2ncnc3cc(-c4ccccc4)sc23)CC1 [MMV024195]
[1]
  Relative Bioluminescence (%): 89.61%
[2]
  Relative Bioluminescence (%): 76.61%

## COc1ccc(S(=O)(=O)Nc2ccc(CN3CCN(C(=O)c4cccc(C#N)c4)CC3)cc2)cc1 [MMV689029]
[1]
  Relative Bioluminescence (%): 67.41%
[2]
  Relative Bioluminescence (%): 57.59%

## O=C1[C@@H](Oc2ccccc2)[C@@H](c2ccc(Cl)cc2)N1CCn1cnc2c(NCc3ccccc3)ncnc21 [MMV688352]
[1]
  Relative Bioluminescence (%): 66.17%
[2]
  Relative Bioluminescence (%): 8.52%

## COc1ccc(N(CCc2cccc(C)n2)C(C)=O)cc1 [MMV675995]
[1]
  Relative Bioluminescence (%): 51.88%
[2]
  Relative Bioluminescence (%): 31.11%

## COc1ccccc1OCCCCn1c(C2CC2)nc2ccccc21 [MMV676474]
[1]
  Relative Bioluminescence (%): 84.28%
[2]
  Relative Bioluminescence (%): 88.48%

## O=C(NCc1nnc2n1CCCCC2)c1ccc(-c2ccc(F)cc2)o1 [MMV688796]
[1]
  Relative Bioluminescence (%): 88.65%
[2]
  Relative Bioluminescence (%): 91.91%

## O=C(Nc1ccccc1)c1ccc(-c2cc3ccncc3cc2OC2CCNCC2)s1 [MMV024035]
[1]
  Relative Bioluminescence (%): 86.60%
[2]
  Relative Bioluminescence (%): 79.61%

## COc1ccc(CCN2CCC(NCc3cccc(N(C)C)c3)CC2)cc1 [MMV011511]
[1]
  Relative Bioluminescence (%): 78.49%
[2]
  Relative Bioluminescence (%): 88.55%

## CC1=NN(c2nc3ccccc3s2)C(=O)C1Cc1cccc2ccccc12 (stereo not drawn) [MMV676558]
[1]
  Relative Bioluminescence (%): -0.86%
[2]
  Relative Bioluminescence (%): -0.77%
  pEC50: 6.33

## COc1ccc(-c2cnc3cnc(-c4cccc(OC(C)C)c4)cn23)cc1 [MMV688270]
[1]
  Relative Bioluminescence (%): 58.63%
[2]
  Relative Bioluminescence (%): 51.88%

## Cc1cc(NCC(C)C)c2[nH]nc(-c3ccccc3)c2n1 [MMV021375]
[1]
  Relative Bioluminescence (%): 68.90%
[2]
  Relative Bioluminescence (%): 58.94%

## CC(=O)Nc1ccc(NC(=O)c2cc(-c3cc(Cl)ccc3O)n[nH]2)cc1 [MMV676380]
[1]
  Relative Bioluminescence (%): 84.54%
[2]
  Relative Bioluminescence (%): 97.79%

## NC(=O)c1cc(-c2ccsc2)ccc1OCCOc1ccccc1 [MMV687138]
[1]
  Relative Bioluminescence (%): 56.61%
[2]
  Relative Bioluminescence (%): 48.25%

## CNC(=O)CNc1nc(-c2ccccn2)nc2scc(-c3ccccc3)c12 [MMV1029203]
[1]
  Relative Bioluminescence (%): 83.99%
[2]
  Relative Bioluminescence (%): 52.70%

## O=C(NCCN1CCCC1)c1cc(NCCCCN2CCC(F)(F)CC2)nc2ccc(Cl)cc12 [MMV667494]
[1]
  Relative Bioluminescence (%): 55.75%
[2]
  Relative Bioluminescence (%): 61.89%

## O=S(=O)(c1ccc(Cl)cc1)N1CCN(C(=S)NCc2ccco2)CC1 [MMV000858]
[1]
  Relative Bioluminescence (%): 100.91%
[2]
  Relative Bioluminescence (%): 108.52%

## Cc1ccc(NC(=O)c2cc(S(=O)(=O)NC(C)(C)C)ccc2C)nc1 [MMV020289]
[1]
  Relative Bioluminescence (%): 103.50%
[2]
  Relative Bioluminescence (%): 71.21%

## COc1ccc(Cn2cnc3c(-c4ccco4)nc(Cl)nc32)cc1 [MMV687170]
[1]
  Relative Bioluminescence (%): 107.56%
[2]
  Relative Bioluminescence (%): 104.36%

## Cc1ccc2oc(-c3cc(NC(=O)Cc4ccccc4)ccc3Cl)nc2c1 [MMV676509]
[1]
  Relative Bioluminescence (%): 92.05%
[2]
  Relative Bioluminescence (%): 59.65%

## c1ccc2c(c1)CN(CC1CC1)CC1(CCN(Cc3c[nH]c4cnccc34)CC1)O2 [MMV023183]
[1]
  Relative Bioluminescence (%): 103.26%
[2]
  Relative Bioluminescence (%): 84.53%

## Cc1cc(C)n2nc(C(=O)Nc3cc(C(F)(F)F)ccc3N3CCOCC3)nc2n1 [MMV019087]
[1]
  Relative Bioluminescence (%): 89.61%
[2]
  Relative Bioluminescence (%): 89.32%

## CN1CCN(c2nccc3nc(-c4ccc(F)c(F)c4)[nH]c23)CC1 [MMV676260]
[1]
  Relative Bioluminescence (%): 69.43%
[2]
  Relative Bioluminescence (%): 85.22%

## Nc1c2c(nc3sc4c(c13)CCCC4)CCCC2 [MMV676588]
[1]
  Relative Bioluminescence (%): 70.58%
[2]
  Relative Bioluminescence (%): 69.13%

## COc1ccc(OC)c(NCc2ccc3nc(N)nc(N)c3c2Cl)c1 [MMV675968]
[1]
  Relative Bioluminescence (%): 100.09%
[2]
  Relative Bioluminescence (%): 86.04%

## Cc1cccc(C(=O)Nc2ccnc(N(C)C3CCN(CC(C)C)CC3)c2)c1 [MMV024829]
[1]
  Relative Bioluminescence (%): 74.80%
[2]
  Relative Bioluminescence (%): 69.82%

## O=C(NC1CCCCC1)N1CCN(Cc2ccc3c(c2)OCO3)CC1 [MMV676444]
[1]
  Relative Bioluminescence (%): 89.21%
[2]
  Relative Bioluminescence (%): 81.76%

## O=C(NCCc1c[nH]c2ccccc12)c1cc2ccccc2oc1=O [MMV676539]
[1]
  Relative Bioluminescence (%): 54.78%
[2]
  Relative Bioluminescence (%): 62.48%

## CCCCN(CCCC)c1c(C#N)cc(S(=O)(=O)Nc2ccccc2)cc1C#N [MMV688467]
[1]
  Relative Bioluminescence (%): 6.98%
[2]
  Relative Bioluminescence (%): 2.46%
  pEC50: 5.78

## COc1cc(NC(=O)Cc2nn(C)c(=O)c3ccccc23)ccc1Cl [MMV676053]
[1]
  Relative Bioluminescence (%): 106.26%
[2]
  Relative Bioluminescence (%): 78.76%

## c1ccc(Oc2ccc(-c3cncc(-c4ccc5[nH]ccc5c4)n3)cc2)cc1 [MMV688178]
[1]
  Relative Bioluminescence (%): 91.24%
[2]
  Relative Bioluminescence (%): 94.95%

## CC(=O)OCC1OC([S-])C(OC(C)=O)C(OC(C)=O)C1OC(C)=O.CCP(CC)CC.[Au+] (stereo not drawn) [MMV688978, Auranofin, reference compound]
[1]
  Relative Bioluminescence (%): -2.60%
[2]
  Relative Bioluminescence (%): -2.20%
  pEC50: 6.77

## COc1cccc(-n2nnnc2S(C)(=O)=O)c1 [MMV272144]
[1]
  Relative Bioluminescence (%): 2.64%
[2]
  Relative Bioluminescence (%): 0.19%
  pEC50: 6.19

## Cc1cccc(-c2nc(Nc3ccncn3)c3sccc3n2)n1 [MMV688122]
[1]
  Relative Bioluminescence (%): 61.39%
[2]
  Relative Bioluminescence (%): 16.72%

## CCc1nc2ccccc2n1CC(O)COc1cc(C)ccc1Cl (stereo not drawn) [MMV676449]
[1]
  Relative Bioluminescence (%): 92.26%
[2]
  Relative Bioluminescence (%): 88.05%

## CCC(=O)Nc1ccccc1C(=O)Nc1ccccn1 [MMV202553]
[1]
  Relative Bioluminescence (%): 76.92%
[2]
  Relative Bioluminescence (%): 77.09%

## O=C(Nc1cccnc1)c1c(O)c2cccc3c2n(c1=O)CC3 [MMV676395]
[1]
  Relative Bioluminescence (%): 63.89%
[2]
  Relative Bioluminescence (%): 0.76%

## CS(=O)(=O)Cc1nc2ccccc2oc1=O [MMV553002]
[1]
  Relative Bioluminescence (%): 72.57%
[2]
  Relative Bioluminescence (%): 58.91%

## COC(=O)c1c(NC(=O)c2c(F)c(F)c(F)c(F)c2F)sc2c1CCCCC2 [MMV461553]
[1]
  Relative Bioluminescence (%): 48.03%
[2]
  Relative Bioluminescence (%): -0.44%

## COc1ccc(C2=NN(C3CCCCCC3)C(=O)[C@@H]3CC=CC[C@H]23)cc1OCCCCOc1ccc(-c2nn[nH]n2)cc1 [MMV690027]
[1]
  Relative Bioluminescence (%): 96.72%
[2]
  Relative Bioluminescence (%): 33.47%

## CNc1nnc(Sc2cnn(-c3ccccc3)c(=O)c2Cl)s1 [MMV688763]
[1]
  Relative Bioluminescence (%): -1.63%
[2]
  Relative Bioluminescence (%): -0.71%
  pEC50: 6.42
